# Measured values as given in US5268374A, “Non-peptide renin inhibitors” (Abbott Laboratories, priority 1991, dated 1993).
# pIC50: −log10 of the molar value. Like-named read-outs stand apart in the source and are kept apart here.
# Target: T1, human renal renin (Homo sapiens, UniProt P00797)
# T1 construct: from tissue; host or cells: human kidney (read from the word 'renal'; no preparation is printed)
# T1 sequence (P00797 67-406): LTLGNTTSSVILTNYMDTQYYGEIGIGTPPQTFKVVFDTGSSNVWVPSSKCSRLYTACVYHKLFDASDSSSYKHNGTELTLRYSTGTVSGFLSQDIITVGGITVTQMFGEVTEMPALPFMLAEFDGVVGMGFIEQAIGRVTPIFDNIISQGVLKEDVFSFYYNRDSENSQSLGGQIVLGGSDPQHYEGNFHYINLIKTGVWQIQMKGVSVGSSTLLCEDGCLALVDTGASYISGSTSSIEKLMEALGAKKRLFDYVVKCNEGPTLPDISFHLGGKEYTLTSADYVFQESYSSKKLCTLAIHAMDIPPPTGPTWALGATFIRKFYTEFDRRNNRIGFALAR
# Assay: Inhibition of human renal renin in vitro (angiotensin I formation by radioimmunoassay)
# Assay type: biochemical
# [1] = human renal renin, 37 degrees C, pH 6.0, read-out: IC50
Compound,pIC50 [1],pIC50
"CCCC[C@H](N[C@@H](Cc1ccccc1)C(=O)N1CCOCC1)C(=O)N[C@@H](CC1CCCCC1)[C@@H](O)[C@@H](O)CC(C)C [Example 69, N-(1(S)-(4-Morpholinylcarbonyl)-2-phenylethyl)-L-norleucyl Amide of 2(S)-Amino-1-cyclohexyl-3(R),4(S)-dihydroxy-6-methylheptane]",8.05,–
"CC(C)C[C@H](O)[C@H](O)[C@H](CC1CCCCC1)NC(=O)[C@H](C)O[C@@H](Cc1ccccc1)C(=O)N1CCC1 [Example 87, 2(S)-(1(S)-(N-Azetidinylcarbonyl)-2-phenylethoxy)propionic acid Amide of 2(S)-Amino-1-cyclohexyl-3(R),4(S)-dihydroxy-6-methylheptane]",8.26,–
"CC(C)C[C@H](O)[C@H](O)[C@H](CC1CCCCC1)NC(=O)[C@H](C)O[C@@H](Cc1ccccc1)C(=O)N1CCCC1 [Example 88, 2(S)-(1(S)-(N-Pyrolidinylcarbonyl)-2-phenylethoxy)propionic acid Amide of 2(S)-Amino-1-cyclohexyl-3(R),4(S)-dihydroxy-6-methylheptane]",7.92,–
"CC(C)C[C@H](O)[C@H](O)[C@H](CC1CCCCC1)NC(=O)[C@H](C)O[C@@H](Cc1ccccc1)C(=O)N1CCCCC1 [Example 89, 2(S)-(1(S)-(N-Piperidinylcarbonyl)-2-phenylethoxy)propionic acid Amide of 2(S)-Amino-1-cyclohexyl-3(R),4(S)-dihydroxy-6-methylheptane]",7.82,–
"CCCCNC(=O)[C@@H](C[C@H](O)[C@H](CC1CCCCC1)NC(=O)[C@H](C)O[C@@H](Cc1ccccc1)C(=O)N1CCOCC1)C(C)C [Example 91, 2(S)-(1(S)-(4-Morpholinylcarbonyl)-2-phenylethoxy)propionic acid Amide of 2(S)-Amino-1-cyclohexyl-3(S)-hydroxy-5(S)-n-butylcarbamoyl-6-methylheptane]",8.41,–
"CCCC[C@H](O[C@@H](Cc1ccccc1)C(=O)N1CCC(OCOC)CC1)C(=O)N[C@@H](CC1CCCCC1)[C@@H](O)[C@@H](O)CC(C)C [Example 93, 2(S)-(1(S)-(4-(Methoxymethoxy)piperidin-1-yl-carbonyl)-2-phenylethoxy)hexanoic acid Amide of 2(S)-Amino-1-cyclohexyl-3(R),4(S)-dihydroxy-6-methylheptane]",8.96,–
"COCOC1CCN(C(=O)[C@H](Cc2ccccc2)O[C@@H](C)C(=O)N[C@@H](CC2CCCCC2)[C@@H](O)[C@@H](O)CC(C)C)CC1 [Example 94, 2(S)-(1(S)-(4-(Methoxymethoxy)piperidinyl-1-yl-carbonyl)-2-phenylethoxy)propionic acid Amide of 2(S)-Amino-1-cyclohexyl-3(R),4(S)-dihydroxy-6-methylheptane]",8.89,–
"CCCCNC(=O)[C@@H](C[C@H](O)[C@H](CC1CCCCC1)NC(=O)[C@H](CCCC)O[C@@H](Cc1ccccc1)C(=O)N1CCC(OCOC)CC1)C(C)C [Example 96, 2(S)-(1(S)-(4-(Methoxymethoxy)piperidin-1-yl-carbonyl)-2-phenylethoxy)hexanoic acid Amide of 2(S)-Amino-1-cyclohexyl-3(S)-hydroxy-5(S)-n-butylcarbamoyl-6-methylheptane]",8.82,–
"CCCC[C@H](O[C@@H](Cc1ccccc1)C(=O)N1CCC(OCOC)CC1)C(=O)N[C@@H](CC1CCCCC1)[C@@H](O)[C@@H]1CN(CC)C(=O)O1 [Example 108, 2(S)-(1(S)-(4-(Methoxymethoxy)piperidin-1-yl-carbonyl)-2-phenylethoxy)hexanoic acid Amide of (2's,1'R,5S)-3-Ethyl-5-(1'-hydroxy-2'-amino-3'-cyclohexylpropyl)oxazolidin-2-one]",9.06,–
"CCCC[C@H](O[C@@H](Cc1ccccc1)C(=O)N1CCC(OCOC)CC1)C(=O)N[C@@H](CC1CCCCC1)[C@@H](O)C[C@H](C(=O)NCCCn1ccnc1)C(C)C [Example 116, 2(S)-(1(S)-(4-(Methoxymethoxy)piperidin-1-yl)carbonyl-2-phenyl)ethoxyhexanoic acid amide of 3-(1-imidazolyl)propyl 5(S)-amino-6-cyclohexyl-4(S)-hydroxy-2(S)-isopropylhexanamide]",8.89,–
"CCCC[C@H](O[C@@H](Cc1ccccc1)C(=O)N1CCC(OCOC)CC1)C(=O)N[C@@H](CC1CCCCC1)[C@@H](O)C[C@H](C(=O)NCCCN(C)C)C(C)C [Example 117, 2(S)-(1(S)-(4-(Methoxymethoxy)piperidin-1-yl)carbonyl-2-phenyl)ethoxyhexanoic acid amide of 3-(dimethylamino)propyl 5(S)-amino-6-cyclohexyl-4(S)-hydroxy-2(S)-isopropylhexanamide]",8.60,–
CCCC[C@H](N[C@@H](Cc1ccccc1)C(=O)N1CCC(OCOC)CC1)C(=O)N[C@@H](CC1CCCCC1)[C@@H](O)C[C@H](C(=O)NCCCn1ccnc1)C(C)C [Example 119],–,8.52
"CCCC[C@H](O[C@@H](Cc1ccccc1)C(=O)N1CCC(OCOC)CC1)C(=O)N[C@@H](CC1CCCCC1)[C@@H](O)CN(C)S(=O)(=O)NC [Example 122, 2(S)-(1(S)-(4-(Methoxymethoxy)piperidin-1-yl)carbonyl-2-phenyl)ethoxyhexanoic acid amide of (2S,3S)-3-amino-4-cyclohexyl-2-hydroxy-1-(methyl(methylsulfamoyl)amino)butane]",8.60,–
CCCC[C@H](O[C@@H](Cc1ccccc1)C(=O)N1CCC(OCOC)CC1)C(=O)N[C@@H](CC1CCCCC1)[C@@H](O)C[C@H](NC(=O)OCCN(C)C)C(C)C [Example 129],8.57,–
CCCC[C@H](O[C@@H](Cc1ccccc1)C(=O)N1CCC(OCOC)CC1)C(=O)N[C@@H](CC1CCCCC1)[C@@H](O)C[C@H](NC(=O)OCCN1CCOCC1)C(C)C [Example 130],8.85,–
CCCC[C@H](O[C@@H](Cc1ccccc1)C(=O)N1CCC(OCOC)CC1)C(=O)N[C@@H](CC1CCCCC1)[C@@H](O)C[C@H](NC(=O)OCCc1ccccn1)C(C)C [Example 131],9.06,–
"CCCCC(=O)N[C@@H](C[C@H](O)[C@H](CC1CCCCC1)NC(=O)[C@H](CCCC)O[C@@H](Cc1ccccc1)C(=O)N1CCC(OCOC)CC1)C(C)C [Example 132, 2(S)-1(S)-4-(Methoxymethoxy)piperidin-1-yl)carbonyl-2-phenyl)ethoxyhexanoicacid amide of 2(S)-amino-1-cyclohexyl-5(S)-((2-(pentanoyl)amino-3(S)-hydroxy-6-methylheptane]",8.49,–
CCCC[C@H](O[C@@H](Cc1ccccc1)C(=O)N1CCC(OCOC)CC1)C(=O)N[C@@H](CC1CCCCC1)[C@@H](O)C[C@H](C(=O)NCCC[N+](C)(C)[O-])C(C)C [Example 136],8.85,–
CCCC[C@H](O[C@@H](Cc1ccccc1)C(=O)N1CCC(OCOC)CC1)C(=O)N[C@@H](CC1CCCCC1)[C@@H](O)[C@@H](O)CN(C)OC [Example 139],8.57,–
"CCCC[C@H](O[C@@H](Cc1ccccc1)C(=O)N1CCC(OCOC)CC1)C(=O)N[C@@H](CC1CCCCC1)[C@@H](O)CN(C(C)C)S(=O)(=O)NC [Example 142, 2(S)-(1(S)-(4-(Methoxymethoxy)piperidin-1-yl)carbonyl-2-phenyl)ethoxyhexanoic acid amide of (2S,3S)-3-amino-4-cyclohexyl-2-hydroxy-1-(isopropyl(methylsulfamoyl)amino)butane]",8.89,–
CCCC[C@H](O[C@@H](Cc1ccccc1)C(=O)N1CCC(OCOC)CC1)C(=O)N[C@@H](CC1CCCCC1)[C@@H](O)C(F)(F)[C@H](O)C(C)C [Example 179],8.34,–
CCCC[C@H](O[C@@H](Cc1ccccc1)C(=O)N1CCC(OCOC)CC1)C(=O)N[C@@H](CC(C)C)[C@@H](O)CC(=O)NCC(C)CC (some centres unmarked) [Example 180],8.42,–
CCCC[C@H](N[C@@H](Cc1ccccc1)C(=O)N1CCC(OCOC)CC1)C(=O)N[C@@H](CC1CCCCC1)[C@H](O)CC(C(=O)N[C@H](C(=O)NCc1ccccn1)[C@@H](C)CC)C(C)C (some centres unmarked) [Example 181],8.74,–
